According to patent US6992079B2, “Substituted 11-phenyl-dibenzazepine compounds useful for the treatment or prevention of diseases characterized by abnormal cell proliferation” (President Fellows of Harvard College, priority 1997, dated 2006):
Like-named read-outs stand apart in the source and are kept apart here.

How the values were obtained:
MCF7 = test: SRB antiproliferative assay; assay type: cell-based; conditions: Homo sapiens
Description: (§1) The cells were passaged using Trypsin (Gibco).

HeLa = test: SRB antiproliferative assay; assay type: cell-based; conditions: Homo sapiens, HeLa (Cervical), 5% FCS/5 day incubation
Description: as §1

U118MG = test: SRB antiproliferative assay; assay type: cell-based; conditions: Homo sapiens, U-118-MG
Description: as §1

HEPG2 = test: SRB antiproliferative assay; assay type: cell-based; conditions: Homo sapiens
Description: as §1

A549 = test: SRB antiproliferative assay; assay type: cell-based; conditions: Homo sapiens
Description: as §1

HT29 = test: SRB antiproliferative assay; assay type: cell-based; conditions: Homo sapiens
Description: as §1

PC-3 = test: In-Vitro Testing SRB panel: Prostate Cancer; assay type: cell-based; conditions: PC-3, 48 h
[1] = system: PC-3 Human Prostate Tumor cells; test: XTT growth inhibition assay; assay type: cell-based; conditions: PC-3 cells
[2] = Preliminary toxicity studies in mice and rats; assay type: in vivo
SF-539 = test: In-Vitro Testing SRB panel: CNS Cancer; assay type: cell-based; conditions: SF-539, 48 h
COLO 205 = test: In-Vitro Testing SRB panel: Colon Cancer; assay type: cell-based; conditions: COLO 205, 48 h
IGROV1 = test: In-Vitro Testing SRB panel: Ovarian Cancer; assay type: cell-based
SK-MEL-2B = test: In-Vitro Testing SRB panel: Melanoma; assay type: cell-based; conditions: 48 h
U251 = test: In-Vitro Testing SRB panel: CNS Cancer; assay type: cell-based
SF-268 = test: In-Vitro Testing SRB panel: CNS Cancer; assay type: cell-based; conditions: SF-268, 48 h
SR = test: In-Vitro Testing SRB panel: Leukemia; assay type: cell-based; conditions: 48 h
ROP-62 = assay type: cell-based; conditions: 48 h
SN12C = test: In-Vitro Testing SRB panel: Renal Cancer; assay type: cell-based; conditions: 48 h
OVCAR-3 = test: In-Vitro Testing SRB panel: Ovarian Cancer
[3] = system: A2058 metastatic melanoma; test: Mouse xenograft tumor growth; assay type: in vivo, CD-1 nude mice
Procedure: NCI-A2058 human melanoma cell line was grown as monolayer culture in Minimum essential medium (D-MEM) supplemented with 10% fetal bovine serum (FBS), 0.1 mM non-essential amino acid, 1.0 mM sodium pyruvate, 100U/ml penicillin, 100 μg/ml streptomycin and 0.25 μg/ml amphotericin B and L-alanyl-1-glutamine (2 mM) at 37° C. in an atmosphere of 5% CO2 in air. The tumor cells were routinely subcultured twice weekly by trypsin-EDTA treatment. The cells were harvested from subconfluent logarithmically growing culture by treatment with typsin-EDTA and counted for tumor inoculation.
An acclimation period of at least 7 days were allowed between animal receipt and commence of tumor inoculation. When the female CD-1 nude mice were more than 6-7 weeks of age (20-25 g), each mouse was subcutaneously injected with 5.0×10^6 NCI-A2058 human melanoma cells in 0.1 ml of PBS solution at the right flank of the mice to induce tumor growth.

[4] = Homo sapiens, read-out: LC50 (the source's name)
[5] = administered intraperitoneally, orally or subcutaneously

Structure (SMILES): O=C(c1ccc([N+](=O)[O-])cc1)N1Cc2ccccc2C(c2ccccc2Cl)c2ccccc21 (centres unmarked) [Compound 28, N-(4′-Nitrobenzoyl)-11-(2′-chlorophenyl)-5,6-dihydro-11H-dibenz[b,e]azepine]
- IC50 (MCF7; MCF7, MCF7 (Breast), 5% FCS/5 day incubation): 600 nM
- IC50 (MCF7; MCF7, MCF7, 5% FCS/3 days): 2100 nM
- IC50 (HeLa): 300 nM
- IC50 (U118MG; U118MG (CNS), 5% FCS/5 day incubation): 500 nM
- IC50 (U118MG; U118MG, 5% FCS/3 days): 1300 nM
- IC50 (HEPG2; HepG2, HEPG2 (Hepatocel), 5% FCS/5 day incubation): 300 nM
- IC50 (HEPG2; HepG2, HEPG2, 5% FCS/3 days): < 1250 nM
- IC50 (A549; A549, A549 (Lung), 5% FCS/5 day incubation): 800 nM
- IC50 (A549; A549, A549, 5% FCS/3 days): 1800 nM
- IC50 (HT29; HT-29, HT29 (Colon), 5% FCS/5 day incubation): 300 nM
- IC50 (HT29; HT-29, HT29, 5% FCS/3 days): < 1250 nM
- GI50 (PC-3; Homo sapiens): 501 nM
- CC50 (PC-3; [4]): > 100 µM
- TGI (PC-3): 9.10E−06 Molar
- Percent Growth (PC-3; log10 conc −4.0 Molar): −9%
- Percent Growth (PC-3; log10 conc −5.0 Molar): −2%
- Percent Growth (PC-3; log10 conc −6.0 Molar): 40%
- Percent Growth (PC-3; log10 conc −7.0 Molar): 74%
- Percent Growth (PC-3; log10 conc −8.0 Molar): 109%
- PC-3 prostate cancer cell growth (XTT) [1]: inhibits PC-3 prostate cancer cell growth
- body weight losses [2, 5]: did not cause significant body weight losses
- gross observations of brain, heart, lungs, liver, spleen, kidney and gastrointestinal tract [2, 5]: no abnormalities were detected
- systemic toxicity ([2]; mice and rats): no obvious systemic toxicity
- GI50 (SF-539; Homo sapiens): 25.6 µM
- CC50 (SF-539; [4]): > 100 µM
- TGI (SF-539): >1.00E−04 Molar
- Percent Growth (SF-539; log10 conc −4.0 Molar): 35%
- Percent Growth (SF-539; log10 conc −5.0 Molar): 61%
- Percent Growth (SF-539; log10 conc −6.0 Molar): 86%
- Percent Growth (SF-539; log10 conc −7.0 Molar): 107%
- Percent Growth (SF-539; log10 conc −8.0 Molar): 82%
- TGI (COLO 205): 1.41E−05 Molar
- Percent Growth (COLO 205; log10 conc −4.0 Molar): −60%
- Percent Growth (COLO 205; log10 conc −5.0 Molar): 10%
- Percent Growth (COLO 205; log10 conc −6.0 Molar): 40%
- Percent Growth (COLO 205; log10 conc −7.0 Molar): 77%
- Percent Growth (COLO 205; log10 conc −8.0 Molar): 79%
- GI50 (COLO 205; Homo sapiens): 845 nM
- CC50 (COLO 205; [4]): > 72.5 µM
- GI50 (IGROV1; Homo sapiens, IGROV-1, 48 h): 1880 nM
- CC50 (IGROV1; Homo sapiens, IGROV-1, IGROV1, 48 h, read-out: LC50 (the source's name)): > 100 µM
- TGI (IGROV1; IGROV1, 48 h): >1.00E−04 Molar
- Percent Growth (IGROV1; IGROV1, log10 conc −4.0 Molar, 48 h): 25%
- Percent Growth (IGROV1; IGROV1, log10 conc −5.0 Molar, 48 h): 34%
- Percent Growth (IGROV1; IGROV1, log10 conc −6.0 Molar, 48 h): 56%
- Percent Growth (IGROV1; IGROV1, log10 conc −7.0 Molar, 48 h): 97%
- Percent Growth (IGROV1; IGROV1, log10 conc −8.0 Molar, 48 h): 102%
- GI50 (SK-MEL-2B; Homo sapiens): > 100 µM
- CC50 (SK-MEL-2B; Homo sapiens, SK-MEL-2B, read-out: LC50 (the source's name)): > 100 µM
- TGI (SK-MEL-2B; SK-MEL-2B): >1.00E−04 Molar
- Percent Growth (SK-MEL-2B; SK-MEL-2B, log10 conc −4.0 Molar): 50%
- Percent Growth (SK-MEL-2B; SK-MEL-2B, log10 conc −5.0 Molar): 56%
- Percent Growth (SK-MEL-2B; SK-MEL-2B, log10 conc −6.0 Molar): 72%
- Percent Growth (SK-MEL-2B; SK-MEL-2B, log10 conc −7.0 Molar): 97%
- Percent Growth (SK-MEL-2B; SK-MEL-2B, log10 conc −8.0 Molar): 39%
- GI50 (U251; Homo sapiens, U-251, 48 h): 476 nM
- CC50 (U251; Homo sapiens, U-251, U251, 48 h, read-out: LC50 (the source's name)): > 100 µM
- TGI (U251; U251, 48 h): >1.00E−04 Molar
- Percent Growth (U251; U251, log10 conc −4.0 Molar, 48 h): 8%
- Percent Growth (U251; U251, log10 conc −5.0 Molar, 48 h): 9%
- Percent Growth (U251; U251, log10 conc −6.0 Molar, 48 h): 28%
- Percent Growth (U251; U251, log10 conc −7.0 Molar, 48 h): 94%
- Percent Growth (U251; U251, log10 conc −8.0 Molar, 48 h): 104%
- GI50 (SF-268; Homo sapiens): 1660 nM
- CC50 (SF-268; [4]): > 100 µM
- TGI (SF-268): >1.00E−04 Molar
- Percent Growth (SF-268; log10 conc −4.0 Molar): 19%
- Percent Growth (SF-268; log10 conc −5.0 Molar): 34%
- Percent Growth (SF-268; log10 conc −6.0 Molar): 55%
- Percent Growth (SF-268; log10 conc −7.0 Molar): 81%
- Percent Growth (SF-268; log10 conc −8.0 Molar): 94%
- TGI (SR): >1.00E−04 Molar
- GI50 (SR; Homo sapiens): 643 nM
- CC50 (SR; [4]): > 100 µM
- Percent Growth (SR; log10 conc −4.0 Molar): 21%
- Percent Growth (SR; log10 conc −5.0 Molar): 30%
- Percent Growth (SR; log10 conc −6.0 Molar): 42%
- Percent Growth (SR; log10 conc −7.0 Molar): 85%
- Percent Growth (SR; log10 conc −8.0 Molar): 76%
- GI50 (ROP-62; Homo sapiens): 13.1 µM
- CC50 (ROP-62; Homo sapiens, ROP-62, read-out: LC50 (the source's name)): > 100 µM
- TGI (ROP-62; ROP-62): >1.00E−04 Molar
- Percent Growth (ROP-62; ROP-62, log10 conc −4.0 Molar): 38%
- Percent Growth (ROP-62; ROP-62, log10 conc −5.0 Molar): 52%
- Percent Growth (ROP-62; ROP-62, log10 conc −6.0 Molar): 60%
- Percent Growth (ROP-62; ROP-62, log10 conc −7.0 Molar): 89%
- Percent Growth (ROP-62; ROP-62, log10 conc −8.0 Molar): 91%
- TGI (SN12C): >1.00E−04 Molar
- GI50 (SN12C; Homo sapiens): 4.52 µM
- CC50 (SN12C; [4]): > 100 µM
- Percent Growth (SN12C; log10 conc −4.0 Molar): 23%
- Percent Growth (SN12C; log10 conc −5.0 Molar): 36%
- Percent Growth (SN12C; log10 conc −6.0 Molar): 77%
- Percent Growth (SN12C; log10 conc −7.0 Molar): 103%
- Percent Growth (SN12C; log10 conc −8.0 Molar): 100%
- GI50 (OVCAR-3; Homo sapiens, OVCAR-3, 48 h): 5.25 µM
- CC50 (OVCAR-3; Homo sapiens, OVCAR-3, 48 h, read-out: LC50): > 100 µM
- TGI (OVCAR-3; OVCAR-3, 48 h): >1.00E−04 Molar
- Percent Growth (OVCAR-3; OVCAR-3, log10 conc −4.0 Molar, 48 h): 31%
- Percent Growth (OVCAR-3; OVCAR-3, log10 conc −5.0 Molar, 48 h): 44%
- Percent Growth (OVCAR-3; OVCAR-3, log10 conc −6.0 Molar, 48 h): 64%
- Percent Growth (OVCAR-3; OVCAR-3, log10 conc −7.0 Molar, 48 h): 95%
- Percent Growth (OVCAR-3; OVCAR-3, log10 conc −8.0 Molar, 48 h): 89%
- tumor growth [3]: significantly inhibited tumor growth
